Results published in ChEMBL document CHEMBL4024733, “An unusual spinaceamine-bearing pregnane from a soft coral Scleronephthya sp. inhibits the migration of tumor cells” (Bioorg Med Chem Lett, 2017).

Experiments:
Format in all cases: functional, cell-based
A549 = assay: Antimigratory activity against human A549 cells after 24 hrs by crystal violet staining based inverted microscopic method
B16 [1] = assay: Antimigratory activity against mouse B16 cells assessed as decrease in TGFbeta mRNA level by SYBR staining based real-time qPCR assay
B16 [2] = assay: Antimigratory activity against mouse B16 cells assessed as inhibition of MMP9 mRNA level after 24 hrs by SYBR staining based real-time qPCR assay; details: B16, 24 h
B16 [3] = assay: Antimigratory activity against mouse B16 cells assessed as decrease in TNFalpha mRNA level by SYBR staining based real-time qPCR assay
B16 [4] = assay: Antimigratory activity against mouse B16 cells assessed as inhibition of VEGF mRNA level after 24 hrs by SYBR staining based real-time qPCR assay; details: B16, 24 h
B16 [5] = assay: Antimigratory activity against mouse B16 cells assessed as inhibition of MMP2 mRNA level after 24 hrs by SYBR staining based real-time qPCR assay; details: B16, 24 h
B16 [6] = assay: Antimigratory activity against mouse B16 cells after 24 hrs by crystal violet staining based inverted microscopic method
B16 [7] = assay: Antimigratory activity against mouse B16 cells assessed as decrease in IL-1beta mRNA level by SYBR staining based real-time qPCR assay
B16 [8] = assay: Antimigratory activity against mouse B16 cells assessed as decrease in IL-6 mRNA level by SYBR staining based real-time qPCR assay

IC50 (B16 [2]) [µM] | IC50 (B16 [4]) [µM] | IC50 (B16 [5]) [µM] | SMILES | Activity (A549) | Activity (B16 [1]) | Activity (B16 [3]) | Activity (B16 [6]) | Activity (B16 [7]) | Activity (B16 [8])
12.4 | 7.6 | 5.8 | C=C[C@H]1CC[C@H]2[C@@H]3CC[C@H]4CC(=O)/C(=C5\NC=Cc6nc[nH]c65)C(=O)[C@]4(C)[C@H]3CC[C@]12C | Dose-dependent effect | Dose-dependent effect | Dose-dependent effect | Dose-dependent effect | Dose-dependent effect | Dose-dependent effect
5.3 | 8.4 | 6.6 | C=C[C@H]1CC[C@H]2[C@@H]3CC[C@H]4CC(=O)/C(=C5\NCCc6nc[nH]c65)C(=O)[C@]4(C)[C@H]3CC[C@]12C | Dose-dependent effect | Dose-dependent effect | Dose-dependent effect | Dose-dependent effect | Dose-dependent effect | Dose-dependent effect
